From patent publication US20090062267A1, “L-ALANINE DERIVATIVES AS a5beta1 ANTAGONISTS” (ASTRAZENECA AB, priority 2007, published 2009)
pIC50: −log10 of the molar value.

Biological target: recombinant human α5β1 (Homo sapiens, UniProt P05556+P08648)
Assay: In Vitro Binding Assay (a): inhibition of binding of α5β1 integrin to a fragment of human fibronectin (Fn9-10), Origen electrochemiluminescence
Details: geometric mean where tested more than once
Excerpt: The assay determined the ability of compounds to inhibit binding of α5β1 integrin to a cognate ligand, a fragment of human fibronectin. The assay used Origen technology (IGEN International) to measure the compound activity. Briefly, α5β1 integrin was coated onto epoxy-paramagnetic beads (Dynal Biotech UK, Bromborough, Wirral, CH62 3QL, UK, Catalogue No 140.11) and biotinylated-fibronectin ligand was coupled to strepatividin labeled Tag-NHS-Ester (BioVeris Corporation, Witney, Oxfordshire, OX28 4GE, UK, Catalogue No 110034). The ruthenium-labeled tag emits an electrochemiluminescence signal upon stimulation which is detected by the Origen reader. Thus, interaction of integrin and ligand causes association of bead and tag, and the resulting electrochemiluminescence signal reflects the level of integrin interaction with fibronectin.
20 μg of recombinant human α5β1 was coated onto 4×10(7) epoxy-paramagnetic beads according to manufacturers instructions at 4° C. for 24 hours. Integrin coating and corresponding activity was subsequently measured for each batch but typically, 25 ng of coated protein was used per assay well.
A DNA fragment encoding the domains 9-10 (amino-acids 1325-1509) of human fibronectin (Swiss-Prot Accession No. P02751) was isolated from cDNA libraries using standard molecular biology and PCR cloning techniques. The cDNA fragment was sub-cloned into a pT73.3 expression vector containing a GST-epitope tag (developed at AstraZeneca; Bagnall et al., Protein Expression and Purification, 2003, 27: 1-11). Following expression in E. coli, the expressed protein, termed Fn9-10, was purified using the GST-tag using standard purification techniques. The recombinant Fn9-10 was subsequently biotinylated using a EZ-link Sulfo-NHS-LC-Biotinylation kit (Perbio Science UK Ltd., Cramlington, Northumberland, NE23 1WA, UK, Catalogue No. 21335) and made to give a final concentration of approximately 1 mg/ml. Tag-NHS-Ester was labeled with streptavidin by incubation at room temperature following manufacturers instructions and buffer-exchanged into PBS to give a concentration of 0.5 mg/ml. Immediately prior to the assay, biotinylated-Fn9-10 and Streptavidin-labeled Tag were diluted in Assay Buffer to give a final concentrations of 0.6 ug/ml and 1.5 ug/ml respectively. The Fn9-10 and Tag solutions were then mixed together in equal volumes and incubated on ice for at least 30 minutes prior to the assay.
Aliquots (20 μl) of each compound dilution were placed into each well of a 384-well round bottomed polypropylene plate (Matrix Technologies, Wilmslow, Cheshire, SK9 3LP, Catalogue No. 4340 384).
For the assay, 25 ng (20 ul) of a5b1-bead suspension and 40 μl of the Fn9-10/Tag pre-incubated solution were added to each well containing 20 μl of compound or control solution. Assay plates were then incubated at room temperature for a minimum of 6 hours before being analysed on an Origen plate reader. The minimum value was subtracted from all values, and the signal was plotted against compound concentration to generate IC50 data.
The data in the above table was generated in an assay substantially as described above in relation to Binding Assay (a). Some of the compounds shown in the table were tested more than once in the assay. For those compounds the IC50 value shown is the geometric mean of the measured IC50 values.

Sequence of recombinant human α5β1 (P08648 42-1049): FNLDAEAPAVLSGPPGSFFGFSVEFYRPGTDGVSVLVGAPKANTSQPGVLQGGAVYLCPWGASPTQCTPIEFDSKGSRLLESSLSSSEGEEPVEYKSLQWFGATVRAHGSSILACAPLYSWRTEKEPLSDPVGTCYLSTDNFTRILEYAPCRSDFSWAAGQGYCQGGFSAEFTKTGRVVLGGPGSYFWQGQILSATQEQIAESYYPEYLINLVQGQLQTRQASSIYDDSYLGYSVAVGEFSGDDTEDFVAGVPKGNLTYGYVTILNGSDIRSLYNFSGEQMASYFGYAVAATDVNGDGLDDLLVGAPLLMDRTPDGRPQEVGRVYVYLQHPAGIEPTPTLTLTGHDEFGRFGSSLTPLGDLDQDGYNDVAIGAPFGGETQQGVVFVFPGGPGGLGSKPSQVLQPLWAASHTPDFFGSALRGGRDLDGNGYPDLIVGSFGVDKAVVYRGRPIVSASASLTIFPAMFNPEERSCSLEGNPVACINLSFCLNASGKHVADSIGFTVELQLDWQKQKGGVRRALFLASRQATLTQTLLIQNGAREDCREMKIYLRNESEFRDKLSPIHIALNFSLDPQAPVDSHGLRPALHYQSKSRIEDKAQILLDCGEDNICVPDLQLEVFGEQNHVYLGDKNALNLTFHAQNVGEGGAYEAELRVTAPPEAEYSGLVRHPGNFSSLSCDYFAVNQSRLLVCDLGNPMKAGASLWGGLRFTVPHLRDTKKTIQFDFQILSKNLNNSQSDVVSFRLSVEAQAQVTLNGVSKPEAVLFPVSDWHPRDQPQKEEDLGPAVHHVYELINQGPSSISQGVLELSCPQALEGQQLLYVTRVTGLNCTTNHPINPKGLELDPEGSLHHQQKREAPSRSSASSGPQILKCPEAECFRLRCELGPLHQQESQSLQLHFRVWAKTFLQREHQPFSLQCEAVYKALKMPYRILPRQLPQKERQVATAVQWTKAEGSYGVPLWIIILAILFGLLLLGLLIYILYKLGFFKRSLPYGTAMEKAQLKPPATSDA
Sequence of recombinant human α5β1 (P05556 21-798): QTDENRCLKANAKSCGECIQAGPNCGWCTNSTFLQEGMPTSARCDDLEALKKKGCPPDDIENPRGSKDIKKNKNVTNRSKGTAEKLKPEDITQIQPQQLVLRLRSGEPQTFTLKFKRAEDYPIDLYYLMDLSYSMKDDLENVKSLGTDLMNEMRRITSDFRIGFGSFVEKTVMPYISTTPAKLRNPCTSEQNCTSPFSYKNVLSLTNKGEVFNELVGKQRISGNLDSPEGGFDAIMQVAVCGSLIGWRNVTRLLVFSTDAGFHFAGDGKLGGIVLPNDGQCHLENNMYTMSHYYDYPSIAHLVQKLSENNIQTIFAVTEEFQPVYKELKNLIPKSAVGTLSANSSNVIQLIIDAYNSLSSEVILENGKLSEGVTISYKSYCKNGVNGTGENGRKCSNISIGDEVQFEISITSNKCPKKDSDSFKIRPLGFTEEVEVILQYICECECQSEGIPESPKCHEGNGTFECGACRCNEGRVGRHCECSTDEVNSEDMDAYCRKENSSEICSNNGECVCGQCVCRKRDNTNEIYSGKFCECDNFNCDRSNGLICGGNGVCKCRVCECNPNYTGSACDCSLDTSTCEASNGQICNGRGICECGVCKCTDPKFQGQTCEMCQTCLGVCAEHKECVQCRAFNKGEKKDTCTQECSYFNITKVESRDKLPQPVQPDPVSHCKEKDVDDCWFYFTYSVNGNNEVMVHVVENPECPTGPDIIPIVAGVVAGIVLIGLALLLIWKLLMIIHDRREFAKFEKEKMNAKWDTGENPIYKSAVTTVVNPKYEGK

pIC50 | Structure (SMILES)
6.89 | CNc1cccc(CCOc2ccc(C[C@H](NC(=O)c3c[nH]nc3C)C(=O)O)cc2)n1 [Example 1.15, O-{2-[6-(methylamino)pyridin-2-yl]ethyl}-N-[(3-methyl-1H-pyrazol-4-yl)carbonyl]-L-tyrosine]
7.72 | CNc1cccc(CCOc2ccc(C[C@H](NC(=O)c3sccc3C)C(=O)O)cc2)n1 [Example 1.8, O-{2-[6-(methylamino)pyridin-2-yl]ethyl}-N-[(3-methyl-2-thienyl)carbonyl]-L-tyrosine]
7.72 | CNc1cccc(CCOc2ccc(C[C@H](NC(=O)c3ccc(C)nc3Cl)C(=O)O)cc2)n1 [Example 1.2, N-[(2-chloro-6-methylpyridin-3-yl)carbonyl]-O-{2-[6-(methylamino)pyridin-2-yl]ethyl}-L-tyrosine]
6.60 | CNc1cccc(CCOc2ccc(C[C@H](NC(=O)c3ocnc3C)C(=O)O)cc2)n1 [Example 1.18, O-{2-[6-(methylamino)pyridin-2-yl]ethyl}-N-[(4-methyl-1,3-oxazol-5-yl)carbonyl]-L-tyrosine]
7.14 | CCn1nc(C)cc1C(=O)N[C@@H](Cc1ccc(OCCc2cccc(NC)n2)cc1)C(=O)O [Example 1.7, N-[(1-ethyl-3-methyl-1H-pyrazol-5-yl)carbonyl]-O-{2-[6-(methylamino)pyridin-2-yl]ethyl}-L-tyrosine]
7.41 | CNc1cccc(CCOc2ccc(C[C@H](NC(=O)c3ccc(Cl)nc3Cl)C(=O)O)cc2)n1 [Example 2.4, N-[(2,6-dichloropyridin-3-yl)carbonyl]-O-{2-[6-(methylamino)pyridin-2-yl]ethyl}-L-tyrosine]
7.26 | CNc1cccc(CCOc2ccc(C[C@H](NC(=O)c3cccn3C)C(=O)O)cc2)n1 [Example 1.4, O-{2-[6-(methylamino)pyridin-2-yl]ethyl}-N-[(1-methyl-1H-pyrrol-2-yl)carbonyl]-L-tyrosine]
8.60 | O=C(N[C@@H](Cc1ccc(CCCc2ccc3c(n2)NCCC3)nc1)C(=O)O)c1sccc1Cl [Example 10, N-[(3-chloro-2-thienyl)carbonyl]-3-{6-[3-(5,6,7,8-tetrahydro-1,8-naphthyridin-2-yl)propyl]pyridin-3-yl}-L-alanine]
> 9.00 | O=C(N[C@@H](Cc1ccc(OCCc2ccc3c(n2)NCCC3)cn1)C(=O)O)c1sccc1Cl [Example 6, N-[(3-chlorothiophen-2-yl)carbonyl]-3-{5-[2-(5,6,7,8-tetrahydro-1,8-naphthyridin-2-yl)ethoxy]pyridin-2-yl}-L-alanine]
7.64 | CNc1cccc(CCOc2ccc(C[C@H](NC(=O)c3cnccc3C)C(=O)O)cc2)n1 [Example 1.10, O-{2-[6-(methylamino)pyridin-2-yl]ethyl}-N-[(4-methylpyridin-3-yl)carbonyl]-L-tyrosine]
9.00 | O=C(N[C@@H](Cc1ccc(OCCc2ccc3c(n2)NCCC3)cc1)C(=O)O)c1sccc1Cl [Example 5.2, N-[(3-chlorothiophen-2-yl)carbonyl]-O-[2-(5,6,7,8-tetrahydro-1,8-naphthyridin-2-yl)ethyl]-L-tyrosine]
7.38 | COc1cscc1C(=O)N[C@@H](Cc1ccc(OCCc2ccc3c(n2)NCCC3)cc1)C(=O)O [Example 5.1, N-[(4-methoxythiophen-3-yl)carbonyl]-O-[2-(5,6,7,8-tetrahydro-1,8-naphthyridin-2-yl)ethyl]-L-tyrosine]
9.00 | CCc1sccc1C(=O)N[C@@H](Cc1ccc(OCCc2ccc3c(n2)NCCC3)cc1)C(=O)O [Example 5.6, N-[(2-ethylthiophen-3-yl)carbonyl]-O-[2-(5,6,7,8-tetrahydro-1,8-naphthyridin-2-yl)ethyl]-L-tyrosine]
7.62 | CNc1cccc(CCOc2ccc(C[C@H](NC(=O)c3ncccc3Cl)C(=O)O)cc2)n1 [Example 1.23, N-[(3-chloropyridin-2-yl)carbonyl]-O-{2-[6-(methylamino)pyridin-2-yl]ethyl}-L-tyrosine]
7.68 | CNc1cccc(CCOc2ccc(C[C@H](NC(=O)c3ccoc3C)C(=O)O)cc2)n1 [Example 1.12, O-{2-[6-(methylamino)pyridin-2-yl]ethyl}-N-(2-methyl-3-furoyl)-L-tyrosine]
7.47 | CNc1cccc(CCOc2ccc(C[C@H](NC(=O)c3cccnc3C)C(=O)O)cc2)n1 [Example 2.6, O-{2-[6-(methylamino)pyridin-2-yl]ethyl}-N-[(2-methylpyridin-3-yl)carbonyl]-L-tyrosine]
6.45 | CNc1cccc(CCOc2ccc(C[C@H](NC(=O)c3ccc(OC)nc3OC)C(=O)O)cc2)n1 [Example 3.2, N-[(2,6-dimethoxypyridin-3-yl)carbonyl]-O-{2-[6-(methylamino)pyridin-2-yl]ethyl}-L-tyrosine]
> 9.00 | O=C(N[C@@H](Cc1ccc(OCCc2ccc3c(n2)NCCC3)cc1)C(=O)O)c1c(Cl)cncc1Cl [Example 5.5, N-[(3,5-dichloropyridin-4-yl)carbonyl]-O-[2-(5,6,7,8-tetrahydro-1,8-naphthyridin-2-yl)ethyl]-L-tyrosine]
8.30 | O=C(N[C@@H](Cc1ccc(OCCc2ccc3c(n2)NCCO3)cc1)C(=O)O)c1ccncc1Cl [Example 4.4, N-[(3-chloropyridin-4-yl)carbonyl]-O-[2-(3,4-dihydro-2H-pyrido[3,2-b][1,4]oxazin-6-yl)ethyl]-L-tyrosine]
6.46 | CNc1cccc(CCOc2ccc(C[C@H](NC(=O)c3nc(C)oc3C)C(=O)O)cc2)n1 [Example 1.20, N-[(2,5-dimethyl-1,3-oxazol-4-yl)carbonyl]-O-{2-[6-(methylamino)pyridin-2-yl]ethyl}-L-tyrosine]
7.51 | CCSc1ncccc1C(=O)N[C@@H](Cc1ccc(OCCc2cccc(NC)n2)cc1)C(=O)O [Example 2.3, N-{[2-(ethylthio)pyridin-3-yl]carbonyl}-O-{2-[6-(methylamino)pyridin-2-yl]ethyl}-L-tyrosine]
7.47 | CNc1cccc(CCOc2ccc(C[C@H](NC(=O)c3nc(Cl)ccc3Cl)C(=O)O)cc2)n1 [Example 1.22, N-[(3,6-dichloropyridin-2-yl)carbonyl]-O-{2-[6-(methylamino)pyridin-2-yl]ethyl}-L-tyrosine]
7.62 | CNc1cccc(CCOc2ccc(C[C@H](NC(=O)c3scnc3C)C(=O)O)cc2)n1 [Example 1.16, O-{2-[6-(methylamino)pyridin-2-yl]ethyl}-N-[(4-methyl-1,3-thiazol-5-yl)carbonyl]-L-tyrosine]
8.15 | CNc1cccc(CCOc2ccc(C[C@H](NC(=O)c3ccncc3Cl)C(=O)O)cc2)n1 [Example 2.1, N-(3-chloroisonicotinoyl)-O-{2-[6-(methylamino)pyridin-2-yl]ethyl}-L-tyrosine]
> 9.00 | O=C(N[C@@H](Cc1ccc(OCCc2ccc3c(n2)NCCO3)cc1)C(=O)O)c1c(Cl)cncc1Cl [Example 4.1, N-[(3,5-dichloropyridin-4-yl)carbonyl]-O-[2-(3,4-dihydro-2H-pyrido[3,2-b][1,4]oxazin-6-yl)ethyl]-L-tyrosine]
6.88 | CNc1cccc(CCOc2ccc(C[C@H](NC(=O)c3csc(C(C)C)c3)C(=O)O)cc2)n1 [Example 1.30, N-[(5-isopropyl-3-thienyl)carbonyl]-O-{2-[6-(methylamino)pyridin-2-yl]ethyl}-L-tyrosine]
